Measurements: patent US7968526B2, “Antisense oligonucleotides directed to ribonucleotide reductase R2 and uses thereof in the treatment of cancer” (Lorus Therapeutics Inc., priority 2003, dated 2011)
“Also recorded” adds a separate entry of the source. [5mC] = 5-methylcytosine

Legend:
[1] = system: human Burkitt's lymphoma (Raji) cells; assay: Survival of SCID mice bearing human Burkitt's lymphoma (Raji); assay type: in vivo, human cells in mice; conditions: 10 mg/kg i.v. every second day
Method: Mice with established human Burkitt's lymphoma tumours were treated every second day with either saline or SEQ ID NO:1 for 44 days as described above. The control group mice all died from disease progression by day 20. At day 44, the SEQ ID NO:1 mice continued treatment on a weekly basis until stopping the treatment at day 73.
As an additional test of efficacy SEQ ID NO:1 was administered to SCID mice bearing active Burkitt's lymphoma (FIG. 30). Viable human Burkitt's lymphoma (Raji) cells (5×10^6) collected from subconfluent logarithmically growing cultures were injected i.v. into each animal and disease was allowed to establish for 2 days. SEQ ID NO:1, SEQ ID NO:3 and SEQ ID NO:2, in normal saline were administered by tail vein injection every second day at a dose of 10 mg/kg. At day 40 the treatment schedule was reduced to 10 mg/kg every 3 days. Control animals received saline alone, without oligonucleotide. Survival is presented as a percentage of the starting number of mice over time.

[2] = system: C8161 human metastatic melanoma cells; assay: Experimental metastasis assay, C8161 cells, treatment post tumour cell injection; assay type: in vivo, human cells in mice; conditions: C8161 cells i.v. into SCID mice; treatment initiated after 2 days; lungs 5-7 weeks later
Method: C8161 human melanoma cells were seeded into 100 mm tissue culture dishes at a density of 2×10^6 and incubated overnight at 37° C. in α-MEM medium supplemented with 10% FBS. The cells were trypsinized, collected by centrifugation and aliquots were removed from the suspension to determine the cell viability using trypan blue exclusion test. […] Treatment was initiated after 2 days. Estimates of the number of lung nodules were made 5-7 weeks later, after excised lungs from individual mice were stained with picric acid dye solution (75% picric acid, 20% formaldehyde, 5% glacial acetic acid).
Murine R3 fibrosarcoma and human C8161 melanoma cells injected into the tail vein of mice form observable lung nodules 2 weeks post-injection. […] To more accurately reflect the clinical situation, mice were treated with SEQ ID NO:1 post tumour cell injection. C8161 human metastatic melanoma cells were seeded into 100 mm tissue culture dishes at a density of 2×10^6 and incubated overnight at 37° C. in α-MEM medium supplemented with 10% FBS. The cells were trypsinized, collected by centrifugation and aliquots were removed from the suspension to determine the cell viability using trypan blue exclusion test. Approximately 1×10^5 cells suspended in 0.1 ml of PBS were injected into the tail veins of 6-8 week old female SCID mice. Treatment was initiated after 2 days. Estimates of the number of lung nodules were made 5-7 weeks later, after excised lungs from individual mice were stained with picric acid dye solution (75% picric acid, 20% formaldehyde, 5% glacial acetic acid). The results are shown in FIG. 31, bars represent the mean number of nodules per mouse with standard error.

[3] = system: MDA-MB-231 human breast cancer cells; assay: MDA-MB-231 breast tumour xenograft in CD-1 nude mice, combination with taxol or doxorubicin (1.7); assay type: in vivo, human cells in mice; conditions: MDA-MB-231, CD-1 nude mice; oligonucleotides 10 mg/kg i.v. every other day; taxol 10 mg/kg, doxorubicin 5 mg/kg i.v. weekly
Method: After 52 days the mice were sacrificed and the tumours weighed. […] Mitoxantrone was administered intravenously once at the beginning of the treatments at a dose of 2 mg/kg (FIG. 4A) or once a week for four weeks at a reduced dose of 0.8 mg/kg (FIG. 4B). All treatments were stopped at day 50 (FIG. 4A) or 48 (FIG. 4B), respectively. […] Mitoxantrone was administered intravenously once at the beginning of the treatments at a dose of 2 mg/kg (FIG. 5A) or once a week for four weeks at a reduced dose of 0.8 mg/kg (FIG. 5B). All treatments were stopped at day 42 (FIG. 5A) or 38 (FIG. 5B), respectively. […] A2058 is a metastatic melanoma cell line. […] All treatments were stopped at day 24. […] Taxol was administered intravenously once a week at a dose of 10 mg/kg for three (FIG. 7A) or four weeks (FIG. 7C). Doxorubicin was administered intravenously once a week at a dose of 5 mg/kg for first three weeks (FIG. 7A) or for two weeks (FIG. 7C). All treatments were stopped at day 33 (FIG. 7A) or at day 26 (FIG. 7C), respectively. […] In FIG. 7C, antitumour activities were estimated by the inhibition of tumour volume, which was measured with calipers. Each point represents mean tumour volume calculated from 10 animals per experimental group. […] Taxol was administered intravenously once a week for first three weeks and intraperitoneally once a week for next two weeks at a dose of 10 mg/kg. Cisplatin was administered intravenously once a week for first three weeks and intraperitoneally once a week for next two weeks at a dose of 4 mg/kg. All treatments were stopped at day 40. Antitumour activities were estimated by the inhibition of tumour volume, which was measured with caliper. Each point represents mean tumour volume calculated from 9 animals per experimental group.

[4] = system: Hep G2 human liver cancer cells; assay: HepG2 liver tumour growth in CD-1 nude mice (3.7); assay type: in vivo, human cells in mice; conditions: Hep G2, CD-1 nude mice; 2.5 mg/kg i.v. every day, 30 days
Method: Treatments lasted for 14 days thereafter. Antitumour activities were estimated by the inhibition of tumour volume, which was measured with a caliper on four different occasions over the treatment period. Each point represents mean tumour volume calculated from 5 animals per experimental group. […] Control animals (control) received saline alone for the same period. At the end of the treatments, the animals were sacrificed, tumours were excised and their weights were measured. Each bar represents mean tumour weight calculated from 6 animals per experimental group. […] Treatments lasted for 24 days thereafter. Antitumour activities were estimated by the inhibition of tumour volume, which was measured with a caliper at two-day intervals over the treatment period. Each point represents mean tumour volume calculated from 4 animals per experimental group. […] Treatments lasted for 24 days thereafter. Antitumour activities were estimated by the inhibition of tumour volume, which was measured with a caliper at two-day intervals over the treatment period. Each point represents mean tumour volume calculated from 4 animals per experimental group. […] Treatments lasted for 22 days thereafter. […] Each point represents mean tumour volume calculated from 5 animals per experimental group. […] Treatments lasted for 14 days thereafter. Antitumour activities were estimated by the inhibition of tumour volume, which was measured with a caliper on four different occasions over 16-day period. Each point represents mean tumour volume calculated from 5 animals per experimental group. […] Two different batches of SEQ ID NO:1, synthesized at different times (designated as batch 1 and batch 2), were tested to detect possible batch-specific effects. […] Treatments lasted for 34 days thereafter. Antitumour activities were estimated by the inhibition of tumour volume, which was measured with a caliper at two-day intervals over the treatment period. Each point represents mean tumour volume calculated from 5 animals per experimental group. […] Treatments lasted for 30 days thereafter. Antitumour activities were estimated by the inhibition of tumour volume, which was measured with a caliper at various time intervals over the span of 30 days. Each point represents mean tumour volume calculated from 6 animals per experimental group. […] All treatments were stopped at day 36. Antitumour activities were estimated by the inhibition of tumour volume, which was measured with a caliper. Each point represents mean tumour volume calculated from 5 animals per experimental group. […] All treatments were stopped at day 52. […] Antitumour activities were estimated by the inhibition of tumour volume, which was measured with a caliper.

HT29 tumour xenografts = HT29 tumour xenografts in CD-1 nude mice, methylated oligonucleotides; assay type: in vivo, human cells in mice; conditions: compared with SEQ ID NO:1
[5] = system: HT-29 human colon cancer cells; conditions: SEQ ID NO:1 6 mg/kg i.v. every day, mitomycin C 3.5 mg/kg/week i.v.
Method: • 1.1 HT-29 human colon cancer cells (3×10^6 cells in 100 μl of PBS) were subcutaneously injected into the right flank of 6-7 weeks old female CD-1 nude mice. After the size of tumour reached an approximate volume of 50 mm^3, 4 days post tumour cell injection, mitomycin C was administered by bolus infusion into the tail vein at days 4, 11 and 18 with a dose of 3.5 mg/kg/week. […] SEQ ID NO:1 was administered by bolus infusion into the tail vein every day at 6 mg/kg and mitomycin C was administered intravenously at days 4, 11 and 18 with a dose of 3.5 mg/kg/week, one hour after the treatments with SEQ ID NO:1. Control animals received saline alone for the same period as SEQ ID NO:1. All treatments were stopped at day 22. A day after the last treatment, tumours were excised from the animals and their weights were measured.

[6] = SCID mice (Example 7, FIG. 30), from day 40 every 3 days
[7] = SCID mice, stopped at day 42, sacrificed day 73, untreated all died within 23 days

Compound | Survival of mice [1, 6] | Survival of mice [1, 7] | Lung nodule formation / anti-metastatic activity (FIG. 31) [2] | Anti-tumour activity (FIG. 33) (HT29 tumour xenografts) | further results
5′-ACGCACTCAGCTAGTGACAC-3′ (listed as DNA, chemistry not given here) [SEQ ID NO:3, reference compound] | neither SEQ ID NO:3 nor SEQ ID NO:2 control ODNs prolonged survival | no observed efficacy | no anti-metastatic activity |  | Antitumour effect (tumour weight / volume, FIG. 7) [3]: no significant anti-tumour activity as a monotherapy; also recorded: does not cooperate with doxorubicin; Inhibitory effect on tumour growth (tumour volume, FIG. 20) [4]: did not differ from that in saline treated mice
SEQ ID NO:4: SEQ ID NO:1 with methylation at the CpG (C9) (GGCTAAATCGCTCCACCAAG; [5mC] at 9, all phosphorothioate, sugars by position and methylation of C not given here) |  |  |  | does not abrogate the anti-tumour activity of SEQ ID NO:1; also recorded: measurable, but not significant, effect on the anti-tumour activity | 
CO[C@@]12[C@H](COC(N)=O)C3=C(C(=O)C(C)=C(N)C3=O)N1C[C@@H]1N[C@@H]12 [Mitomycin C, mitomycin C] |  |  |  |  | Tumour weight as % of saline control ([5]; HT-29 (colon), SCID mouse as printed): 15%; Antitumour effect (tumour weight, FIG. 1) ([5]; HT-29, CD-1 nude mice): significant delay of tumour growth compared to saline control
SEQ ID NO:5: control oligonucleotide (met-11C) (GGCTAAATCGCTCCACCAAG; listed as DNA, chemistry not fully specified) [reference compound] |  |  |  | measurable, but not significant, effect on the anti-tumour activity | 
5′-GGCTAAACTCGTCCACCAAG-3′ (listed as DNA, chemistry not given here) [SEQ ID NO:2, reference compound] | neither SEQ ID NO:3 nor SEQ ID NO:2 control ODNs prolonged survival | no observed efficacy | no anti-metastatic activity |  | 
